This is an account of results in PubChem BioAssay (NCI).

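All cell lines were grown in 96-well plates and treated with compound for 48 hours. At the TGI there is no net growth.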

Common to all, as to experiment: NCI-60 cell line screen, 48 h
Assay [1] relates to NCI-H23 lung.
The test system of assay [2] is SK-MEL-28 melanoma.
The subject of assay [3] is MDA-N.
Assay [4] has as its system A498 renal.
Assay [5] concerns HS 578T breast.
Assay [6] has as its system HT29 colon.
Assay [7] has as its system CCRF-CEM leukemia.
Assay [8] concerns LOX IMVI melanoma.
Assay [9] relates to SNB-75 CNS.
For assay [10], the system named is SF-539 CNS.
For assay [11], the system named is HL-60(TB) leukemia.
Assay [12] has as its system HOP-62 NSCLC.
In assay [13] the test system is BT-549 breast.
Assay [14] deals with T-47D breast.
The subject of assay [15] is HCC-2998 colon.

For `CCCN(CCC)C(=S)N/N=C/c1cccc(C)n1`, the TGI is more than 100 µM in [1]; 91.3 µM in [2]; 22.6 µM in [3]; 0.473 µM in [4]; more than 100 µM in [5]; more than 100 µM in assay [6]. In addition, the TGI turned out to be 0.275 µM in assay [7]; 15.6 µM in [8]; 0.991 µM in [9]; 0.545 µM in assay [10]; 0.384 µM in assay [11].
For `COc1cc(/C=C2\CCC(C)c3c2nc(N)c(C#N)c3-c2cc(OC)c(OC)c(OC)c2)cc(OC)c1OC` (stereo not drawn), the TGI in assay [2] is more than 100 µM; in assay [3], more than 100 µM; in assay [4], more than 100 µM; in assay [5] it was 75.1 µM; in assay [6], more than 100 µM; in assay [7], more than 100 µM. For the same compound, the TGI is more than 100 µM in assay [12], more than 100 µM in assay [8], 15 µM in [9] and more than 100 µM in [11].
On to `[N-]=[N+]=Nc1cc(=O)n(-c2ccccc2)c(=O)n1-c1ccccc1`, for which the TGI in assay [1], in assay [2], in assay [5], in [13], in assay [6] and in assay [7] was more than 100 µM each time. Moreover, the TGI in assay [14], in [12], in assay [9] and in [10] was more than 100 µM each time.
With `CSC1=N/C(=C\c2ccc(Cl)cc2)C(=O)N1CN1CCOCC1`, the TGI in [1] is more than 100 µM; in assay [2] it was more than 100 µM; in [3], more than 100 µM; in assay [4], more than 100 µM; in assay [5], more than 100 µM; in assay [6], 94.4 µM. The TGI in assay [7], in [12], in [8] and in [9] was more than 100 µM each time.
`Cc1nn(-c2ccccc2)c2nc3c(c(C)nn3-c3ccccc3)c(-c3ccccc3Br)c12`: the TGI in assay [1], in assay [2], in [3], in assay [4], in assay [13] and in assay [6] was more than 100 µM in each case. Further, the TGI in assay [7], in assay [14], in [12], in [15], in assay [8] and in [9] was more than 100 µM in each case. In addition, in assay [10], the TGI is more than 100 µM.
As for `O=C(/C=C/c1c(O)c2ccccc2[nH]c1=O)CC(=O)C(=O)Nc1cccc(O)c1`, the TGI in [1], in assay [2], in assay [4], in assay [5], in assay [13] and in [6] was more than 100 µM each time. The TGI in assay [7], in [14], in assay [15], in assay [8], in assay [9] and in assay [10] was more than 100 µM in each case. In assay [11], this compound gave a TGI of more than 100 µM.
As to `Cc1ccc2nc(CN3CCCCC3)cc(=O)n2c1`, the TGI in assay [1], in assay [2], in assay [5], in [13], in assay [6] and in assay [7] was more than 100 µM throughout. The TGI in assay [12], in [15], in assay [8], in assay [9], in assay [10] and in [11] was more than 100 µM each time.
On to `O=S(=O)([N-]c1nc2ccccc2nc1-[n+]1ccccc1)c1ccccc1`, for which the TGI is more than 100 µM in assay [1]; more than 100 µM in assay [5]; more than 100 µM in [13]; more than 100 µM in assay [6]; 30.7 µM in assay [7]; more than 100 µM in assay [14]. The TGI was more than 100 µM in [12]; more than 100 µM in [15]; more than 100 µM in [8]; more than 100 µM in assay [9]; more than 100 µM in [10]; 72.6 µM in [11].
In the case of `CN(C)Cc1cc(C(=O)/C=C/c2c(Cl)cccc2Cl)cc(CN(C)C)c1O`, the TGI turned out to be 34.2 µM in [1]; 20.9 µM in [2]; 12.7 µM in assay [3]; 22.5 µM in assay [4]; 38.7 µM in assay [5]; 11.6 µM in assay [6]. The TGI in assay [7] worked out at 59 µM; in [14], 42 µM; in assay [12], 20.2 µM; in assay [15], 34.7 µM; in assay [8], 4.45 µM; in [9], 15.7 µM. Besides, the figures for the TGI in [10] and in assay [11] were 34.4 µM and 11.7 µM, respectively.
Consider `COc1ccccc1NC(=S)Nc1cccc(C)n1`, for which the TGI in assay [2], in assay [4], in [5], in assay [13], in assay [6] and in [7] was more than 100 µM throughout. In addition, the TGI in assay [14] was more than 100 µM; in [12], more than 100 µM; in assay [8] it was more than 100 µM; in assay [9] it was 63.5 µM; in [10] it was more than 100 µM; in assay [11] it was more than 100 µM.
Take `COC(=O)CC1CN(C(=O)OCc2ccccc2)C(C)(C)O1` (stereo not drawn): the TGI in assay [1] is more than 100 µM; in assay [2], more than 100 µM; in assay [3], more than 100 µM; in assay [4], more than 100 µM; in [13], 66.9 µM; in [7], more than 100 µM. Also, the TGI in assay [15] is more than 100 µM; in assay [8] it was more than 100 µM; in assay [9], 75.8 µM; in assay [10], more than 100 µM; in assay [11], more than 100 µM.
